Results from patent US20230100838A1 (Revolution Medicines, Inc., priority 2019, published 2023).

Columns and labels:
Assay type in all cases: binding
[1] = target: T1, GDP-loaded K-Ras (1-169) G12D, C51S, C80L, C118S (Homo sapiens, UniProt P01116, C118S/C51S/C80L/G12D); experiment: K-Ras G12D(GDP) cross-linking assay (conjugate formation, TOF mass spectrometry); set-up: key: 0: No observed x-linking; +: 0 < x ≤ 20; ++: 20 < x ≤ 40; +++: 40 < x ≤ 100; conditions: percent covalently modified K-Ras by MS, room temperature, typical compound conc. 2, 10, 25 μM, endpoints 1 and 24 h
T1 construct: GDP-loaded K-Ras (1-169) G12D, C51S, C80L, C118S
Procedure, shortened: (§1)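 5 μM protein (final, from 50 μM) in HEPES/NaCl/MgCl2 buffer pH 7.4 with compound typically at 2, 10 and 25 μM, room temperature, 1 and 24 h endpoints; formic acid quench. Intact-protein LC–TOF MS; percent modification is covalent adduct peak height over total K-Ras peak height.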

[2] = target: T2, GDP-loaded K-Ras (1-169) C51S, C80L, C118S (Homo sapiens, UniProt P01116, C118S/C51S/C80L); experiment: K-Ras WT (GDP) cross-linking assay (conjugate formation, TOF mass spectrometry); set-up: key: 0: No observed x-linking; +: 0 < x ≤ 20; ++: 20 < x ≤ 40; +++: 40 < x ≤ 100; conditions: percent covalently modified K-Ras by MS, room temperature, typical compound conc. 2, 10, 25 μM, endpoints 1 and 24 h
T2 construct: GDP-loaded K-Ras (1-169) C51S, C80L, C118S
Procedure, shortened: as §1

[3] = target: K-Ras G12S (Homo sapiens, UniProt P01116, G12S); experiment: K-Ras G12S cross-linking assay (comparable procedure, conjugate formation, TOF mass spectrometry); set-up: key: 0: No observed x-linking
Procedure, shortened: as §1

[4] = Table 4, percent covalently modified K-Ras by MS
[5] = Table 5, percent covalently modified K-Ras by MS

SMILES | G12D x-linking (%) ([1]; Table 4) | WT x-linking (%) ([2]; Table 4) | G12S x-linking (%) [3, 4] | G12D x-linking (%) ([1]; Table 5) | WT x-linking (%) ([2]; Table 5) | G12S x-linking (%) [3, 5]
CC(=O)N1CC1C(=O)N1CCN(c2nc(OC[C@@H]3CCCN3C)nc3c2CCN(c2cccc4cccc(C)c24)C3)CC1 (stereo partly drawn) [Example 47, 1-(2-(4-(7-(8-methylnaphthalen-1-yl)-2-(((S)-1-methylpyrrolidin-2-yl)methoxy)-5,6,7,8-tetrahydropyrido[3,4-d]pyrimidin-4-yl)piperazine-1-carbonyl)aziridin-1-yl)ethan-1-one] | + (0 < x ≤ 20) | + (0 < x ≤ 20) | + (0 < x ≤ 10) |  |  | 
COCCCN=C=NC1CCN(c2nc(OC[C@@H]3CCCN3C)nc3c2CCN(c2cccc4cccc(C)c24)C3)CC1 [Example 25, N-(3-methoxypropyl)-N-(1-(7-(8-methylnaphthalen-1-yl)-2-(((S)-1-methylpyrrolidin-2-yl)methoxy)-5,6,7,8-tetrahydropyrido[3,4-d]pyrimidin-4-yl)piperidin-4-yl)methanediimine] | +++ (40 < x ≤ 100) | ++ (20 < x ≤ 100) | ++ (10 < x ≤ 100) |  |  | 
CC(=O)N1CC1C(=O)N1CCN(c2ncnc3c(F)c(-c4ccccc4F)c(Cl)cc23)CC1 (stereo not drawn) [Example 17, 1-(2-(4-(6-chloro-8-fluoro-7-(2-fluorophenyl)quinazolin-4-yl)piperazine-1-carbonyl)aziridin-1-yl)ethan-1-one] | + (0 < x ≤ 20) | + (0 < x ≤ 20) | + (0 < x ≤ 10) |  |  | 
CCCN=C=NC1CCN(c2nc(=O)n(-c3c(C)ccnc3C(C)C)c3nc(-c4ccccc4F)c(F)cc23)CC1 [Example 53, 6-fluoro-7-(2-fluorophenyl)-1-(2-isopropyl-4-methylpyridin-3-yl)-4-(4-(((propylimino)methylene)amino)piperidin-1-yl)pyrido[2,3-d]pyrimidin-2(1H)-one] | + (0 < x ≤ 20) | + (0 < x ≤ 20) | + (0 < x ≤ 10) |  |  | 
COc1ccccc1CN=C=NC1CCN(c2nc(OC[C@@H]3CCCN3C)nc3c2CCN(c2cccc4cccc(C)c24)C3)CC1 [Example 81, N-(2-methoxybenzyl)-N-(1-(7-(8-methylnaphthalen-1-yl)-2-(((S)-1-methylpyrrolidin-2-yl)methoxy)-5,6,7,8-tetrahydropyrido[3,4-d]pyrimidin-4-yl)piperidin-4-yl)methanediimine] |  |  |  | + (0 < x ≤ 20) | + (0 < x ≤ 20) | + (0 < x ≤ 10)
Cc1cccc2cccc(N3CCc4c(nc(OC[C@@H]5CCCN5C)nc4N4CCN(C(=O)C5CN5)CC4)C3)c12 (stereo partly drawn) [Example 46, aziridin-2-yl(4-(7-(8-methylnaphthalen-1-yl)-2-(((S)-1-methylpyrrolidin-2-yl)methoxy)-5,6,7,8-tetrahydropyrido[3,4-d]pyrimidin-4-yl)piperazin-1-yl)methanone] | + (0 < x ≤ 20) | + (0 < x ≤ 20) | + (0 < x ≤ 10) |  |  | 
CCCN=C=NCC1CCN(c2nc(=O)n(-c3c(C)ccnc3C(C)C)c3nc(-c4ccccc4F)c(F)cc23)CC1 [Example 71, 6-fluoro-7-(2-fluorophenyl)-1-(2-isopropyl-4-methylpyridin-3-yl)-4-(4-((((propylimino)methylene)amino)methyl)piperidin-1-yl)pyrido[2,3-d]pyrimidin-2(1H)-one] |  |  |  | ++ (20 < x ≤ 40) | ++ (20 < x ≤ 100) | ++ (10 < x ≤ 100)
Fc1ccccc1-c1c(Cl)cc2c(N3CCC(N=C=Nc4ccc(Cl)cc4)CC3)ncnc2c1F [Example 6, N-(1-(6-chloro-8-fluoro-7-(2-fluorophenyl)quinazolin-4-yl)piperidin-4-yl)-N-(4-chiorophenyl)methanediimine] | 0 | 0 | 0 |  |  | 
CC(=O)N1CC1C(=O)N(C)C1CCN(c2nc(OC[C@@H]3CCCN3C)nc3c2CCN(c2cccc4cccc(C)c24)C3)CC1 (stereo partly drawn) [Example 43, 1-acetyl-N-methyl-N-(1-(7-(8-methylnaphthalen-1-yl)-2-(((S)-1-methylpyrrolidin-2-yl)methoxy)-5,6,7,8-tetrahydropyrido[3,4-d]pyrimidin-4-yl)piperidin-4-yl)aziridine-2-carboxamide] | + (0 < x ≤ 20) | + (0 < x ≤ 20) | + (0 < x ≤ 10) |  |  | 
Cc1cccc2cccc(N3CCc4c(nc(OC[C@@H]5CCCN5C)nc4NCCNC(=O)NCCCl)C3)c12 [Example 36, (S)-1-(2-chloroethyl)-3-(2-((7-(8-methylnaphthalen-1-yl)-2-((1-methylpyrrolidin-2-yl)methoxy)-5,6,7,8-tetrahydropyrido[3,4-d]pyrimidin-4-yl)amino)ethyl)urea] | + (0 < x ≤ 20) | + (0 < x ≤ 20) | + (0 < x ≤ 10) |  |  | 
Fc1ccccc1-c1c(Cl)cc2c(N3CCC(N=C=NCc4ccccc4)CC3)ncnc2c1F [Example 1, N-benzyl-N-(1-(6-chloro-8-fluoro-7-(2-fluorophenyl)quinazolin-4-yl)piperidin-4-yl)methanediimine] | + (0 < x ≤ 20) | + (0 < x ≤ 20) | + (0 < x ≤ 10) |  |  | 
COCCN=C=N[C@@H]1CCN(c2nc(OC[C@@H]3CCCN3C)nc3c2CCN(c2cccc4cccc(C)c24)C3)C[C@@H]1CC#N [Example 75, 2-((3S,4R)-4-((((2-methoxyethyl)imino)methylene)amino)-1-(7-(8-methylnaphthalen-1-yl)-2-(((S)-1-methylpyrrolidin-2-yl)methoxy)-5,6,7,8-tetrahydropyrido[3,4-d]pyrimidin-4-yl)piperidin-3-yl)acetonitrile] |  |  |  | +++ (40 < x ≤ 100) | + (0 < x ≤ 20) | ++ (10 < x ≤ 100)
Cc1cccc2cccc(N3CCc4c(nc(OC[C@@H]5CCCN5C)nc4N4CCC(N(C)C(=O)C5CN5)CC4)C3)c12 (stereo partly drawn) [Example 42, N-methyl-(1-(7-(8-methylnaphthalen-1-yl)-2-(((S)-1-methylpyrrolidin-2-yl)methoxy)-5,6,7,8-tetrahydropyrido[3,4-d]pyrimidin-4-yl)piperidin-4-yl)aziridine-2-carboxamide] | + (0 < x ≤ 20) | + (0 < x ≤ 20) | + (0 < x ≤ 10) |  |  | 
Cc1cccc2cccc(N3CCc4c(nc(OC[C@@H]5CCCN5C)nc4N4CCC(N(C)C(=O)C5CN5S(C)(=O)=O)CC4)C3)c12 (stereo partly drawn) [Example 44, N-methyl-(1-(7-(8-methylnaphthalen-1-yl)-2-(((S)-1-methylpyrrolidin-2-yl)methoxy)-5,6,7,8-tetrahydropyrido[3,4-d]pyrimidin-4-yl)piperidin-4-yl)-1-(methylsulfonyl)aziridine-2-carboxamide] | + (0 < x ≤ 20) | + (0 < x ≤ 20) | + (0 < x ≤ 10) |  |  | 
Cc1cccc2cccc(N3CCc4c(nc(OC[C@@H]5CCCN5C)nc4N(C)CCCN=C=NCc4ccc(Cl)cc4)C3)c12 [Example 32, N-(3-((((4-chlorobenzyl)imino)methylene)amino)propyl)-N-methyl-7-(8-methylnaphthalen-1-yl)-2-(((S)-1-methylpyrrolidin-2-yl)methoxy)-5,6,7,8-tetrahydropyrido[3,4-d]pyrimidin-4-amine] | + (0 < x ≤ 20) | + (0 < x ≤ 20) | + (0 < x ≤ 10) |  |  | 
Cc1ccnc(C(C)C)c1-n1c(=O)nc(N2CCN(C(=O)[C@@H]3CN3)C[C@@H]2C)c2cc(F)c(-c3c(O)cccc3F)nc21 [Example 66, 4-((S)-4-((S)-aziridine-2-carbonyl)-2-methylpiperazin-1-yl)-6-fluoro-7-(2-fluoro-6-hydroxyphenyl)-1-(2-isopropyl-4-methylpyridin-3-yl)pyrido[2,3-d]pyrimidin-2(1H)-one] |  |  |  | + (0 < x ≤ 20) | + (0 < x ≤ 20) | + (0 < x ≤ 10)
O=C(NCCCl)NC1CCN(c2ncnc3c(F)c(-c4ccccc4F)c(Cl)cc23)CC1 [Example 10, 1-(1-(6-chloro-8-fluoro-7-(2-fluorophenyl)quinazolin-4-yl)piperidin-4-yl)-3-(2-chloroethyl)urea] | + (0 < x ≤ 20) | + (0 < x ≤ 20) | + (0 < x ≤ 10) |  |  | 
